In patent publication US20210077461A1, “NEW USE” (Novartis AG, priority 2013, published 2021):

Experiments:
[1] = system: HF patients; details: cited from earlier work
[2] = system: hypertensive patients; details: cited from earlier work
[3] = in vivo; cited from earlier work
[4] = system: patients with heart failure; details: cited from earlier work
[5] = system: patients with chronic symptomatic heart failure and reduced ejection fraction (HF-REF); test: PARADIGM-HF: safety and tolerability
Experimental: Patients are assessed at each study visit for hyperkalaemia, symptomatic hypotension, increase in serum creatinine, angioedema and other AEs and serious AEs (SAEs). […] The dose of background disease modifying drugs, such as β-blockers, should not be reduced to facilitate maintenance of study drug. Every attempt should be made to re-challenge the patients so as to maintain as many patients as possible on the target dose of study drug.
All identified cases are submitted to an independent angioedema adjudication committee for a final decision.
Thus, this study employed a seamless design, incorporating “Phase II” into a “Phase III” outcomes trial, as considered further in the Discussion. Further interim safety assessments are planned twice a year.

[6] = system: patients with chronic symptomatic heart failure and reduced ejection fraction (HF-REF); test: PARADIGM-HF randomized double-blind trial, LCZ696 versus enalapril: efficacy outcomes; type: in vivo, human; details: for Death from any cause, number of patients / Death from any cause, percent of patients / Death from cardiovascular causes or first hospitalization for worsening heart failure (primary composite outcome), number of patients with an event / Death from cardiovascular causes or first hospitalization for worsening heart failure (primary composite outcome), percent of patients / Death from cardiovascular causes, number of patients / Death from cardiovascular causes, percent of patients / Decline in renal function, percent of patients / First hospitalization for worsening heart failure, number of patients / First hospitalization for worsening heart failure, percent of patients / Protocol-defined decline in renal function, number of patients: LCZ696 200 mg bid (N = 4187) or enalapril 10 mg bid (N = 4212); for Death from any cause, number of patients / Death from any cause, percent of patients / Death from cardiovascular causes or first hospitalization for worsening heart failure (primary composite outcome), number of patients with an event / Death from cardiovascular causes or first hospitalization for worsening heart failure (primary composite outcome), percent of patients / Death from cardiovascular causes, number of patients / Death from cardiovascular causes, percent of patients / Decline in renal function, percent of patients / First hospitalization for worsening heart failure, number of patients / First hospitalization for worsening heart failure, percent of patients / Protocol-defined decline in renal function, number of patients / New onset atrial fibrillation, percent of patients at risk / New onset atrial fibrillation, number of patients with an event (as a fraction of number of patients at risk): median follow-up 27 months; for Progressed to end-stage renal disease, number of patients / New onset atrial fibrillation, percent of patients at risk / New onset atrial fibrillation, number of patients with an event (as a fraction of number of patients at risk): LCZ696 200 mg bid or enalapril 10 mg bid; for KCCQ clinical summary score, direction of change when zero values were not imputed for patients who died: baseline to month 8
From the text: Patients with chronic HF, NYHA functional class II-IV symptoms, an elevated plasma B-type natriuretic peptide (BNP) or NT-proBNP level and, initially, a left ventricular ejection fraction of ≤40% (later amended to ≤35%) are eligible. […] Secondary outcome measures are change in the Kansas City Cardiomyopathy Questionnaire (KCCQ) clinical summary score at 8 months, change in renal function, and time to all-cause mortality.
The trial was designed by the academic members of the Executive Committee (EC) in collaboration with Novartis personnel.
Entry criteria: 1) age 18 years or older and able to give written informed consent 2) New York Heart Association (NYHA) functional class II-IV, 3) left ventricular ejection fraction (LVEF) ≤35% (initially this was ≤40% but changed in a protocol amendment dated Dec. 15, 2010), 4) plasma B-type natriuretic peptide (BNP) ≥150 pg/ml (or N-terminal [NT]-proBNP ≥600 pg/ml) at the screening visit or a BNP ≥100 pg/mL (or NT-proBNP ≥400 pg/ml) and a hospitalization for HF within the last 12 months, 5) treatment with a stable dose of an ACE inhibitor or an ARB equivalent to enalapril 10 mg/d for at least 4 weeks before the screening visit, 6) treatment with stable dose of a β-blocker for at least 4 weeks prior to Visit 1, unless contraindicated or not tolerated. Although not required, the protocol specified that an aldosterone antagonist should also be considered in all patients, taking account of renal function, serum potassium and tolerability. If given, the dose of aldosterone antagonist should be stable for at least 4 weeks prior to the screening visit.
The key exclusion criteria include: • 1. […] Previous history of intolerance to recommended target doses of ACEIs or ARBs. • 3. Known history of angioedema. • 4. Requirement of treatment with both ACEIs and ARBs. • 5. Current acute decompensated heart failure (exacerbation of chronic heart failure manifested by signs and symptoms that may require intravenous therapy). • 6. Symptomatic hypotension and/or a systolic blood pressure (SBP)<100 mmHg at Visit 1 (screening) or <95 mmHg at Visit 3 or at Visit 5 (randomization). • 7. […] Serum potassium >5.2 mmol/L at Visit 1 (screening) or >5.4 mmol/L at Visit 3 or Visit 5 (randomization). • 9. Acute coronary syndrome, stroke, transient ischemic attack, cardiac, carotid or other major CV surgery, percutaneous coronary intervention or carotid angioplasty within the 3 months prior to Visit 1. • 10. Coronary or carotid artery disease likely to require surgical or percutaneous intervention within the 6 months after Visit 1. • 11. Implantation of a cardiac resynchronization therapy device (CRT) within 3 months prior
Visit 1 or intent to implant a CRT. • 12. History of heart transplant or on a transplant list or with left ventricular assistance device. • 13. History of severe pulmonary disease. • 14. Diagnosis of peripartum or chemotherapy induced cardiomyopathy within the 12 months prior to Visit 1. • 15. Documented untreated ventricular arrhythmia with syncopal episodes within the 3 months prior to Visit 1. • 16. Symptomatic bradycardia or second or third degree atrio-ventricular block without a pacemaker. • 17. Presence of haemodynamically significant mitral and/or aortic valve disease, except mitral regurgitation secondary to left ventricular dilatation. • 18. Presence of other haemodynamically significant obstructive lesions of left ventricular outflow tract, including aortic and sub-aortic stenosis. • 19. […] Presence of any other disease with a life expectancy of <5 years.
At the screening visit, patient eligibility was assessed according to the inclusion/exclusion criteria. Any local measurement of LVEF ≤35%, made within the past 6 months, was acceptable provided there was no subsequent LVEF measurement above 35%. Eligibility BNP (and NT-proBNP), serum potassium and estimated glomerular filtration rate (eGFR) were measured in a central laboratory.

[7] = subgroups by base-line treatment
[8] = LCZ696 group compared with enalapril group, stratified Cox model
[9] = over the duration of the trial, LCZ696 versus enalapril
[10] = zero values imputed for patients who died

## O=C(N[C@H]1CCS[C@H]2CCC[C@@H](C(=O)O)N2C1=O)[C@@H](S)Cc1ccccc1 [omapatrilat]
[1]
  Incidence of angioedema: 0.8%
  Mortality and morbidity in patients with HF relative to enalapril: encouraging trend toward reducing mortality and morbidity
[2]
  Incidence of angioedema: 2.17%
[3]
  BP lowering as compared to other therapeutic classes, including ACE inhibitors and calcium channel blockers: greater BP lowering

## CCCCC(=O)N(Cc1ccc(-c2ccccc2-c2nnn[nH]2)cc1)[C@H](C(=O)O)C(C)C [valsartan, (S)—N-valeryl-N-{[2′-(1H-tetrazole-5-yl)-biphenyl-4-yl]-methyl}-valine]
[4]; Val-HeFT
  Incidence of the combined end point of mortality and morbidity, lower with valsartan than with placebo: 13.2%
  NYHA class, ejection fraction, signs and symptoms of heart failure, and quality of life as compared with placebo: significant improvements
  Number of patients hospitalized for heart failure: 346 patients
  Overall mortality compared with placebo group: similar
  Percent of patients hospitalized for heart failure: 13.8%
[4]; [7]
  Post hoc analysis of the combined end point and mortality, patients receiving both ACE inhibitors and beta-blockers: adverse effect
  Post hoc analysis of the combined end point and mortality, patients receiving neither or one of ACE inhibitors or beta-blockers: favorable effect
[4]; valsartan versus placebo
  Combined end point of mortality and morbidity, relative risk: 0.87

## CCCCC(=O)N(Cc1ccc(-c2ccccc2-c2nn[n-]n2)cc1)C(C(=O)[O-])C(C)C.CCOC(=O)C(C)CC(Cc1ccc(-c2ccccc2)cc1)NC(=O)CCC(=O)[O-].[Na+].[Na+].[Na+] [LCZ696, trisodium [3-((1S,3R)-1-biphenyl-4-ylmethyl-3-ethoxycarbonyl-1-butylcarbamoyl)propionate-(S)-3′-methyl-2′-(pentanoyl{2″-(tetrazol-5-ylate)biphenyl-4′-ylmethyl}amino)butyrate] hemipentahydrate]
[5]; following randomization
  Angioedema confirmed by blinded adjudication, number of patients: 19 patients
  Cough as an adverse event, compared with the enalapril group: less and less likely
  Experience of serum creatinine level ≥2.5 mg/dl, compared with the enalapril group: less likely
  Experience of serum potassium level >6.0 mmol/l, compared with the enalapril group: less likely
  Hypotension / report of symptomatic hypotension, compared with the enalapril group: more and more likely
  Patients who stopped study medication because of renal impairment: 0.7%
  Patients who stopped study medication for any adverse event: 10.7%
[5]; in vivo
  Hyperkalemia, compared with the enalapril group: less
  Non-serious angioedema, compared with the enalapril group: more
  Renal impairment, compared with the enalapril group: less
[6]
  Death from any cause, number of patients: 711 patients
  Death from any cause, percent of patients: 17.0%
  Death from cardiovascular causes or first hospitalization for worsening heart failure (primary composite outcome), number of patients with an event: 914 patients
  Death from cardiovascular causes or first hospitalization for worsening heart failure (primary composite outcome), percent of patients: 21.8%
  Death from cardiovascular causes, number of patients: 558 patients
  Death from cardiovascular causes, percent of patients: 13.3%
  Decline in renal function, percent of patients: 2.3
  First hospitalization for worsening heart failure, number of patients: 537 patients
  First hospitalization for worsening heart failure, percent of patients: 12.8%
  Protocol-defined decline in renal function, number of patients: 94 patients
  Progressed to end-stage renal disease, number of patients: 8 patients
  New onset atrial fibrillation, percent of patients at risk: (3.2)
  KCCQ clinical summary score, direction of change when zero values were not imputed for patients who died: improved
[6]; [8]
  Death from any cause, hazard ratio: 0.84
  Death from cardiovascular causes, hazard ratio: 0.80
  Decline in renal function, hazard ratio: 0.86
  First hospitalization for worsening heart failure, hazard ratio: 0.79
  New onset atrial fibrillation, hazard ratio: 0.97
  Primary composite outcome, hazard ratio: 0.80
[6]; LCZ696 group versus enalapril group
  KCCQ clinical summary score change, between-group difference when zero values were not imputed for patients who died: 0.95
[6]; LCZ696 group versus enalapril group, zero values imputed for patients who died
  KCCQ clinical summary score change at 8 months, between-group difference: 1.64
[6]; LCZ696 versus ACE inhibition with enalapril
  Reduction of the risk of cardiovascular death and the risk of hospitalization for heart failure compared to enalapril: 20%
[6]; LCZ696 versus enalapril
  Reduction of hospitalization for heart failure compared to enalapril: 21%
[6]; difference between groups at 8 months
  Systolic blood pressure at 8 months compared with value at randomization, lower in the LCZ696 group than in the enalapril group: 3.2±0.4 mm Hg
[6]; [9]
  Number of patients needed to treat to prevent one cardiovascular death: 32 patients
  Number of patients needed to treat to prevent one primary event: 21 patients
[6]; [10]
  Mean change in KCCQ Clinical Summary Score from baseline to month 8: −2.99

## CCOC(=O)[C@H](CCc1ccccc1)N[C@@H](C)C(=O)N1CCC[C@H]1C(=O)O [Enalapril, (2S)-1-[(2S)-2-{[(2S)-1-ethoxy-1-oxo-4-phenylbutan-2-yl]amino}propanoyl]-pyrrolidine-2-carboxylic acid, reference compound]
[1]
  Incidence of angioedema: 0.5%
[2]
  Incidence of angioedema: 0.68%
[5]; human, in vivo
  Angioedema confirmed by blinded adjudication, number of patients: 10 patients
  Patients who stopped study medication because of renal impairment: 1.4%
  Patients who stopped study medication for any adverse event: 12.3%
[6]
  Death from any cause, number of patients: 835 patients
  Death from any cause, percent of patients: 19.8%
  Death from cardiovascular causes or first hospitalization for worsening heart failure (primary composite outcome), number of patients with an event: 1117 patients
  Death from cardiovascular causes or first hospitalization for worsening heart failure (primary composite outcome), percent of patients: 26.5%
  Death from cardiovascular causes, number of patients: 693 patients
  Death from cardiovascular causes, percent of patients: 16.5%
  Decline in renal function, percent of patients: 2.6
  First hospitalization for worsening heart failure, number of patients: 658 patients
  First hospitalization for worsening heart failure, percent of patients: 15.6%
  Protocol-defined decline in renal function, number of patients: 108 patients
  Progressed to end-stage renal disease, number of patients: 16 patients
  New onset atrial fibrillation, number of patients with an event (as a fraction of number of patients at risk): 83/2638
  New onset atrial fibrillation, percent of patients at risk: (3.2)
  KCCQ clinical summary score, direction of change when zero values were not imputed for patients who died: declined
[6]; listed as enalapril
  New onset atrial fibrillation, number of patients with an event (as a fraction of number of patients at risk): 83 patients
[6]; [10]
  Mean change in KCCQ Clinical Summary Score from baseline to month 8: −4.63
